From article PMC5706900, “Distinct mobilization of leukocytes and hematopoietic stem cells by CXCR4 peptide antagonist LY2510924 and monoclonal antibody LY2624587” (Oncotarget, 2017)
Positions of bridges follow the written chain, without caps; N, C: chain ends. Non-standard residues stand in square brackets, D forms with d. Residues, ends and D or L forms follow the SMILES beside them. 2Nal = N[C@@H](Cc1ccc2ccccc2c1)C(=O)O; Lys(iPr) = CC(C)NCCCC[C@H](N)C(=O)O

Experiments:
[1] = biological target: T1, human CXCR4 (Homo sapiens, UniProt P61073); assay: SDF-1/CXCR4 binding assay, [125I]-SDF-1α, human leukemia CCRF-CEM cells
T1 construct: human leukemia CCRF-CEM cells that express endogenous CXCR4; endogenous in cells; host or cells: CCRF-CEM human leukemia cells
Experimental: (§1) Preclinical characterization of both agents was previously described. Interaction of SDF-1/CXCR4 was assayed in human leukemia CCRF-CEM cells expressing high levels of human CXCR4, MDA-MB-435 cells stably transfected with monkey CXCR4, and mouse 2PK-3 lymphoma cells expressing high levels of mouse CXCR4.
(§2) Figure 1 LY2510924 peptide and LY2624587 antibody inhibition of SDF-1/CXCR4 binding in human, monkey, and mouse cells LY2510924 (peptide antagonist) inhibits binding in (A) human, (B) monkey, and (C) mouse cells. LY2624587 (CXCR4 mAb) inhibits binding in (D) human, (E) monkey, and (F) mouse cells. Human cells = leukemia CCRF-CEM cells with high-level expression of human CXCR4, monkey cells = MDA-MB-435 cells stably transfected with monkey CXCR4, and mouse cells = 2PK-3 lymphoma cells with high-level expression of mouse CXCR4. Ki = inhibitor constant.
(§3) The SDF-1/CXCR4 binding assay used human leukemia CCRF-CEM cells that express endogenous CXCR4 and [125I]-labeled recombinant human SDF-1α (PeproTech EC Ltd., London, UK) as previously described. The same assay was conducted for breast cancer MDA-MB-435 cells transfected with monkey CXCR4 and mouse lymphoma 2PK-3 cells that express endogenous mouse CXCR4. Plates were counted in a 1450 Microbeta Liquid Scintillation and Luminescence Counter (Wallac) in SPA mode.

[2] = biological target: T2, monkey CXCR4 (Macaca fascicularis, UniProt Q28474); assay: SDF-1/CXCR4 binding assay, MDA-MB-435 cells transfected with monkey CXCR4; settings: MDA-MB-435 cells stably transfected with monkey CXCR4; SPA mode; read-out: IC50, inhibition of SDF-1 binding
T2 construct: expressed in transfected cells; host or cells: MDA-MB-435 cells
Experimental: as §1, §2, §3

[3] = biological target: T3, mouse CXCR4 (Mus musculus, UniProt P70658); assay: SDF-1/CXCR4 binding assay, mouse lymphoma 2PK-3 cells
T3 construct: mouse lymphoma 2PK-3 cells that express endogenous mouse CXCR4; endogenous in cells; host or cells: 2PK-3 mouse lymphoma cells
Experimental: as §1, §2, §3

[4] = 1- to 30-mg/day, patients with advanced cancer; ref [9]; cited from earlier work
Description: We developed LY2624587, a fully humanized CXCR4 mAb that is among the first-in-class anti-CXCR4 mAbs developed, for the treatment of patients with cancer. […] A role for LY2624587 antibody in mobilizing HSCs and WBCs has not been previously reported. We also developed LY25 ...

[5] = test system: hepatic carcinoma models; settings: ref [30]; cited from earlier work
Description: (§4) Due to the critical role of SDF-1/CXCR4 interaction in immune cell retention and mobilization, CXCR4 inhibition may lead to T-cell infiltration and redistribution in tumor microenvironments.

[6] = test system: ovarian cancer models; settings: ref [32]; cited from earlier work
Description: as §4

[7] = test system: pancreatic cancer; settings: mice with pancreatic cancer; ref [7]; cited from earlier work
Description: as §4

[8] = test system: leukocytes and HSCs; settings: ref [12], [20], [24]; cited from earlier work
Description: In addition to tumor microenvironments, SDF-1 is constitutively expressed at high levels in bone marrow and is an efficient chemotactic factor for immune cells including T-cells, B-cells, and monocytes. […] There are two major mechanisms involved in this function: down-regulation of cell surface CXCR4 by internalization or proteolysis, and antagonism via direct blockade of SDF-1/CXCR4 interaction.

[9] = test system: WBC count; settings: ref [43], cited from earlier work
[10] = ref [43]; cited from earlier work
[11] = test system: hematologic malignancies; settings: ref [11], [39]; cited from earlier work
Description: (§5) These distinct in vitro properties may be related to the differential mobilization of WBCs and HSCs in vivo, but the mechanism is not yet understood and these differences cannot fully explain why LY2624587 antibody induced only minimal changes in WBCs and HSCs in monkeys and humans. […] Weak immune cell mobilization by LY2624587 antibody may be a class phenomenon of mAb agents. Ano ...

[12] = test system: patients with chronic lymphocytic leukemia, normal lymphocytes; settings: ref [40]; cited from earlier work
Description: as §5

[13] = test system: patients with multiple myeloma, peripheral leukocytes; settings: ref [41]; cited from earlier work
Description: as §5

T3 sequence (P70658 whole entry): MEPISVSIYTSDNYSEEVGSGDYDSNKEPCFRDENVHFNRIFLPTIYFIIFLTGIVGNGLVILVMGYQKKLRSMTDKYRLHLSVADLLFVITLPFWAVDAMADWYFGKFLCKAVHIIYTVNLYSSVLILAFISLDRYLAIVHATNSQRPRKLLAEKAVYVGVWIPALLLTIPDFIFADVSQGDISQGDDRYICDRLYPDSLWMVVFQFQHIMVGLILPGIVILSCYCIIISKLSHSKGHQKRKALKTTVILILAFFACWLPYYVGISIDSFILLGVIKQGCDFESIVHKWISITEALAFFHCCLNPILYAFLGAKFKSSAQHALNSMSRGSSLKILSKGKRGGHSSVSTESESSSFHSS
T1 sequence (P61073 whole entry): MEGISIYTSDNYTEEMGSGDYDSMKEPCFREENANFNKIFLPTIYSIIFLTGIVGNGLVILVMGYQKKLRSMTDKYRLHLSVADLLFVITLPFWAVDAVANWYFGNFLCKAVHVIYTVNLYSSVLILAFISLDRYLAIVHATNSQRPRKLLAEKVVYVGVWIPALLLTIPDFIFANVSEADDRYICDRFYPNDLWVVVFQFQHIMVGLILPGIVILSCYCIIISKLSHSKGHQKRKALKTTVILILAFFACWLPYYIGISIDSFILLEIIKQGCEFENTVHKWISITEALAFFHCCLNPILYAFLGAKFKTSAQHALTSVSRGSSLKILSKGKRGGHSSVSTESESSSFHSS
T2 sequence (Q28474 whole entry): as the sequence (P61073 whole entry) above, with M24I, N35H, K38R, R146K, N176S counted along it

Compound: CC(C)NCCCC[C@H](NC(=O)[C@H]1CCC(=O)N[C@@H](Cc2ccccc2)C(=O)N[C@@H](Cc2ccc(O)cc2)C(=O)N[C@@H](CCCCNC(C)C)C(=O)N[C@H](CCCNC(=N)N)C(=O)N[C@@H](Cc2ccc3ccccc3c2)C(=O)NCC(=O)N1)C(N)=O [LY2510924] (FY[Lys(iPr)][dR][2Nal]G[dE][Lys(iPr)]-NH2; lactam N-7)
- Ki [1]: 0.0495 nM
- IC50 ([1]; human leukemia CCRF-CEM cells, [125I]-labeled human SDF-1α, SPA mode, read-out: IC50, inhibition of SDF-1 binding): 0.0797 nM
- IC50 [2]: 0.097 nM
- IC50 difference, mouse versus human cells ([3]; mouse 2PK-3 vs human CCRF-CEM): 35 fold
- IC50 difference, mouse versus monkey cells ([3]; mouse 2PK-3 vs monkey CXCR4 MDA-MB-435): 29 fold
- IC50 ([3]; mouse lymphoma 2PK-3 cells, SPA mode, read-out: IC50, inhibition of SDF-1 binding): 2.83 nM
- pharmacokinetic and safety profiles [4]: favorable pharmacokinetic and safety profiles

Compound: c1cc(CN2CCCNCCNCCCNCC2)ccc1CN1CCCNCCNCCCNCC1 [AMD3100]
- combination with anti–PD-1 [5]: augmented anti–PD-1 combination therapy efficacy
- effect on intra-tumor regulatory T-cells [6]: selective reduction of intra-tumor regulatory T-cells
- effect on tumor apoptosis [6]: increased tumor apoptosis
- T-cell accumulation near tumors [7]: rapid T-cell accumulation near tumors
- combination with anti–PD-L1 mAb, tumor cell elimination [7]: synergistic with an anti–PD-L1 mAb to eliminate tumor cells
- mobilization of WBCs including neutrophils and HSCs [8]: mobilize both white blood cells (WBCs) including neutrophils and HSCs
- duration of single dose effect [9]: appeared to last only a few hours
- WBC count at 24 hours ([9]; single dose, 24 hours): reduced to near baseline level at 24 hours
- safety on chronic dosing schedule [10]: poses significant safety concerns due to compound-associated toxicity

Compound: BMS-936564/MDX-1338: CXCR4-specific mAb in clinical development
- antitumor and pro-apoptotic functionality [11]: antitumor and pro-apoptotic functionality
- increase in absolute number of normal lymphocytes [12]: no evidence of increase
- duration of leukocyte increase [13]: transient
- increase in peripheral leukocytes (median) [13]: 2 fold
